The structures appear in SMILES notation. Structures can show the parent of a compound that is named as a salt.

Chain of CK2A1 (CK2α/β) (P68400 whole entry, species assumed): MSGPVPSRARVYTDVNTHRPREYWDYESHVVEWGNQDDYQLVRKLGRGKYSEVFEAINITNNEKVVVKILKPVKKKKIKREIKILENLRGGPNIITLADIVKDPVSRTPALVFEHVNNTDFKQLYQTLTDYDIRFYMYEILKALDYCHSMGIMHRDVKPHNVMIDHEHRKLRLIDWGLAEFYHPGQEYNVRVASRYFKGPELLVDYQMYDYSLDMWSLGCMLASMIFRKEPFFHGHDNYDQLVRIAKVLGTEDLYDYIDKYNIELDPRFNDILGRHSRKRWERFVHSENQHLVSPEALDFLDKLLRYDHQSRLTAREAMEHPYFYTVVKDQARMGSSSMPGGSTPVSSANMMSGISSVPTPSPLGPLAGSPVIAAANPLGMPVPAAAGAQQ
Chain of CK2A1 (CK2α/β) (P67870 whole entry partner, species assumed): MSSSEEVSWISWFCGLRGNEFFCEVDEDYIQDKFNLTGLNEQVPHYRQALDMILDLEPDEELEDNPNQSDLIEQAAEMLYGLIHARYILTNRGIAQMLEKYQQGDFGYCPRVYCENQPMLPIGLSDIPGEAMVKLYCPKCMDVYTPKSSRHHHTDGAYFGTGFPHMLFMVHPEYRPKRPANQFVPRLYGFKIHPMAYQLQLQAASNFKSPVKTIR

The assay has as its target CK2A1 (CK2α/β) (Homo sapiens, UniProt P68400). The assay can be described thus: CK2 kinase assay, CK2A1 (CK2α/β). The format is biochemical. The following applies: Table A; read-out: CK2A1 (CK2α/β) (IC50).
As for `N#Cc1cc(Nc2nc(NC3CC3)c3ncc(C#N)n3n2)c(Cl)c(N2CCN(CCO)CC2)c1` [Example 590, 2-({2-chloro-5-cyano-3-[4-(2-hydroxyethyl)piperazin-1-yl]phenyl}amino)-4-(cyclopropylamino)imidazo [2,1-f][1,2,4]triazine-7-carbonitrile], the IC50 came to 1.83 nM.
In the case of `CCNc1nc(Nc2cc(C#N)cc(C3CN(C4COC4)C3)c2Cl)nn2c(C#N)cnc12` [Example 359, 2-((2-chloro-5-cyano-3-(1-(oxetan-3-yl)azetidin-3-yl)phenyl)amino)-4-(ethylamino)imidazo[2,1-f][1,2,4]triazine-7-carbonitrile], the IC50 was 1.58 nM.
Turning to `COC(=O)N[C@@H]1CCN(c2cc(C#N)cc(Nc3nc(NC4CC4)c4ncc(C#N)n4n3)c2Cl)C[C@H]1OC(=O)CN1CCOCC1` [Example 196, (3R,4R)-1-(2-chloro-5-cyano-3-((7-cyano-4-(cyclopropylamino)imidazo[2,1-f][1,2,4]triazin-2-yl)amino)phenyl)-4-((methoxycarbonyl)amino)-3-piperidinyl 4-morpholinylacetate], the IC50 was 0.8 nM.
For `N#Cc1cc(Nc2nc(NC3CC3)c3ncc(C#N)n3n2)c(Cl)c([C@H]2CCC[C@@H](N3CC(F)C3)C2)c1` (single isomer, unassigned) [Example 729], the IC50 stood at 1.68 nM.
In the case of `CC1(O)CCN(C2CN(c3cc(C#N)cc(Nc4nc(NC5CC5)c5ncc(C#N)n5n4)c3Cl)C2)CC1` [Example 157, 2-((2-chloro-5-cyano-3-(3-(4-hydroxy-4-methyl-1-piperidinyl)-1-azetidinyl)phenyl)amino)-4-(cyclopropylamino)imidazo [2,1-f][1,2,4]triazine-7-carbonitrile], the IC50 was 0.8 nM.
Regarding `CN1CCC(N2CC(O)(c3cc(C#N)cc(Nc4nc(NC5CC5)c5ncc(C#N)n5n4)c3Cl)C2)CC1` [Example 647, 2-((2-chloro-5-cyano-3-(3-hydroxy-1-(1-methylpiperidin-4-yl)azetidin-3-yl)phenyl)amino)-4-(cyclopropylamino)imidazo[2,1-f][1,2,4]triazine-7-carbonitrile], the IC50 was 1.94 nM.
As for `N#Cc1cnc2c(NC3CC3)nc(Nc3cc(C(F)F)cc(N4CCN(C5CS(=O)(=O)C5)CC4)c3Cl)nn12` [Example 272, 2-((2-chloro-5-(difluoromethyl)-3-(4-(1,1-dioxidothietan-3-yl)piperazin-1-yl)phenyl)amino)-4-(cyclopropylamino)imidazo[2,1-f][1,2,4]triazine-7-carbonitrile], the IC50 came to 0.58 nM.
As for `N#Cc1cc(Nc2nc(NC3CC3)c3ncc(C#N)n3n2)c(Cl)c(N2CC[C@H](N)[C@H](F)C2)c1` [Example 283, 2-((3-((3R,4S)-4-amino-3-fluoropiperidin-1-yl)-2-chloro-5-cyanophenyl)amino)-4-(cyclopropylamino)imidazo[2,1-f][1,2,4]triazine-7-carbonitrile, HCl], the IC50 stood at 0.79 nM.
`N#Cc1cc(Nc2nc(NC3CC3)c3ncc(C#N)n3n2)c(Cl)c(N2CCN(CC3COCCO3)CC2)c1` (stereo not shown) [Example 532, 2-((3-(4-((1,4-dioxan-2-yl)methyl)piperazin-1-yl)-2-chloro-5-cyanophenyl)amino)-4-(cyclopropylamino)imidazo[2,1-f][1,2,4]triazine-7-carbonitrile]: the IC50 came to 0.85 nM.
Regarding `CC(C)(CO)NCC(O)c1cc(C#N)cc(Nc2nc(NC3CC3)c3ncc(C#N)n3n2)c1Cl` (stereo not shown) [Example 693, 2-((2-chloro-5-cyano-3-(1-hydroxy-2-((1-hydroxy-2-methylpropan-2-yl)amino)ethyl)phenyl)amino)-4-(cyclopropylamino)imidazo[2,1-f][1,2,4]triazine-7-carbonitrile], the IC50 is 1.1 nM.
For the compound `CNC(=O)CN1CCN(c2cc(C#N)cc(Nc3nc(NC4CC4)c4ncc(C#N)n4n3)c2Cl)C(=O)C1` [Example 625, 2-(4-(2-chloro-5-cyano-3-((7-cyano-4-(cyclopropylamino)imidazo[2,1-f][1,2,4]triazin-2-yl)amino)phenyl)-3-oxopiperazin-1-yl)-N-methylacetamide], the IC50 was determined as 5.8 nM.
For the compound `CN1CCN(C2CN(c3cc(OC(F)F)cc(Nc4nc(NC5CC5)c5ncc(C#N)n5n4)c3Cl)C2)CC1` [Example 405, 2-((2-chloro-5-(difluoromethoxy)-3-(3-(4-methylpiperazin-1-yl)azetidin-1-yl)phenyl)amino)-4-(cyclopropylamino)imidazo[2,1-f][1,2,4]triazine-7-carbonitrile], the IC50 came out at 0.48 nM.
For the compound `CC(=O)NN1CCN(c2cc(C#N)cc(Nc3nc(NC4CC4)c4ncc(C#N)n4n3)c2Cl)CC1` [Example 789, N-(4-(2-chloro-5-cyano-3-((7-cyano-4-(cyclopropylamino)imidazo[2,1-f][1,2,4]triazin-2-yl)amino)phenyl)piperazin-1-yl)acetamide], the IC50 is 0.61 nM.
In the case of `N#Cc1cc(Nc2nc(NC3CC3)c3ncc(C#N)n3n2)c(Cl)c(OC2CCN(C3COC3)C2)c1` (racemic) [Example 426, (+/−)-2-((2-chloro-5-cyano-3-((1-(oxetan-3-yl)pyrrolidin-3-yl)oxy)phenyl)amino)-4-(cyclopropylamino)imidazo[2,1-f][1,2,4]triazine-7-carbonitrile] it was 0.38 nM.
With `CN1CCC(F)(c2cc(C#N)cc(Nc3nc(NC4CC4)c4ncc(C#N)n4n3)c2Cl)CC1` [Example 661, 2-((2-chloro-5-cyano-3-(4-fluoro-1-methylpiperidin-4-yl)phenyl)amino)-4-(cyclopropylamino)imidazo[2,1-f][1,2,4]triazine-7-carbonitrile], the IC50 is 1.56 nM.
On to `N#Cc1cc(Nc2nc(NC3CC3)c3ncc(C#N)n3n2)c(Cl)c(N2CCN([C@H]3C[C@H](F)C3)CC2)c1` [Example 601, 2-[(2-chloro-5-cyano-3-{4-[(1r,3r)-3-fluorocyclobutyl]piperazin-1-yl}phenyl)amino]-4-(cyclopropylamino)imidazo [2,1-f][1,2,4]triazine-7-carbonitrile], for which the IC50 was 1.41 nM.
As for `CC(=O)N1CCC2CN(c3cc(C#N)cc(Nc4nc(NC5CC5)c5ncc(C#N)n5n4)c3Cl)CCC21` (stereo not shown) [Example 446, 2-((3-(1-acetylhexahydro-1H-pyrrolo[3,2-c]pyridin-5(6H)-yl)-2-chloro-5-cyanophenyl)amino)-4-(cyclopropylamino)imidazo[2,1-f][1,2,4]triazine-7-carbonitrile], the IC50 amounted to 3.48 nM.
Turning to `CCNc1nc(Nc2cc(C#N)cc(N3CC[C@H]4[C@H](C3)OC(=O)N4C3COC3)c2Cl)nn2c(C#N)cnc12` [Example 840, 2-((2-chloro-5-cyano-3-((3aS,7aS)-1-(oxetan-3-yl)-2-oxohexahydrooxazolo[5,4-c]pyridin-5(2H)-yl)phenyl)amino)-4-(ethylamino)imidazo[2,1-f][1,2,4]triazine-7-carbonitrile], the IC50 was determined as 1.74 nM.
On to `C[C@@H](O)C(=O)N1CC2(CCN(c3cc(C#N)cc(Nc4nc(NC5CC5)c5ncc(C#N)n5n4)c3Cl)CC2)C1` [Example 794, (R)-2-((2-chloro-5-cyano-3-(2-(2-hydroxypropanoyl)-2,7-diazaspiro[3.5]nonan-7-yl)phenyl)amino)-4-(cyclopropylamino)imidazo[2,1-f][1,2,4]triazine-7-carbonitrile], for which the IC50 worked out at 1.41 nM.

The record behind these values is patent US9273057B2 (Bristol-Myers Squibb Company, priority 2012, dated 2016).
